Measured values as given in ChEMBL document CHEMBL1201862, “PubChem BioAssay data set” (2004).
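How tested: cells in 96-well plates exposed to compound for 48 hours at five concentrations. At the GI50, growth is halved.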 The source made the active and inactive calls. Cut-off read from the data, not from the text of the source: active = GI50 up to about 1.1 µM and inactive = higher.

How the values were obtained:
Test in all cases: NCI anticancer screen, dose series, 48 h
IGROV-1 = test system: IGROV-1
RPMI-8226 = test system: RPMI-8226
KM12 = test system: KM12
NCI/ADR-RES = test system: NCI/ADR-RES
COLO 205 = test system: COLO 205
LOX IMVI = test system: LOX IMVI
SW-620 = test system: SW-620
OVCAR-5 = test system: OVCAR-5
A549 = test system: A549
Malme-3M = test system: Malme-3M
UACC-62 = test system: UACC-62
SF-268 = test system: SF-268
SR = test system: SR
SF-295 = test system: SF-295
SK-MEL-5 = test system: SK-MEL-5
OVCAR-8 = test system: OVCAR-8
HOP-62 = test system: HOP-62
U-251 = test system: U-251
SN12C = test system: SN12C
EKVX = test system: EKVX

Measured: GI50

CC#CC(O)(C(=O)OC1CCC2CCC1N2C)C1CCCC1 (stereo not given)
inactive: IGROV-1 > 100 µM | RPMI-8226 > 100 µM | KM12 > 100 µM | NCI/ADR-RES > 10 µM | COLO 205 > 100 µM | LOX IMVI > 100 µM | SW-620 > 100 µM | OVCAR-5 > 10 µM | A549 > 100 µM | Malme-3M > 100 µM | UACC-62 > 100 µM | SF-268 > 100 µM | SR > 100 µM | SF-295 > 100 µM | SK-MEL-5 > 100 µM | OVCAR-8 > 100 µM | HOP-62 > 100 µM | U-251 > 10 µM | SN12C > 100 µM | EKVX > 100 µM

CN(C)CCNc1ccc(NCC[N+](C)(C)Cc2ccc([N+](=O)[O-])cc2)c2c1C(=O)c1ccccc1C2=O
inactive: IGROV-1 14.5 µM | RPMI-8226 10.8 µM | KM12 13.8 µM | NCI/ADR-RES > 25 µM | COLO 205 7.28 µM | LOX IMVI 15 µM | SW-620 13.3 µM | OVCAR-5 > 25 µM | A549 23.4 µM | Malme-3M 22.6 µM | UACC-62 18.5 µM | SF-268 11.9 µM | SR 6.15 µM | SF-295 18.6 µM | SK-MEL-5 12.2 µM | OVCAR-8 > 25 µM | HOP-62 19.8 µM | U-251 19.4 µM | SN12C 5.56 µM | EKVX > 25 µM

COc1ccc(N2C(=O)C(=O)C3(CCCCC3)C2=O)c2ccccc12
inactive: IGROV-1 > 10 µM | RPMI-8226 > 10 µM | KM12 > 10 µM | NCI/ADR-RES > 10 µM | COLO 205 > 10 µM | LOX IMVI > 10 µM | SW-620 > 10 µM | OVCAR-5 > 10 µM | A549 > 10 µM | Malme-3M > 10 µM | UACC-62 > 10 µM | SF-268 > 10 µM | SR > 10 µM | SF-295 > 10 µM | SK-MEL-5 > 10 µM | OVCAR-8 > 10 µM | HOP-62 > 10 µM | U-251 > 10 µM | SN12C > 10 µM | EKVX > 10 µM

OC(NN=C1CCCC1)(C(F)(F)Cl)C(F)(F)Cl
inactive: IGROV-1 > 10 µM | RPMI-8226 > 10 µM | KM12 > 10 µM | NCI/ADR-RES > 10 µM | COLO 205 > 10 µM | LOX IMVI > 10 µM | SW-620 > 10 µM | OVCAR-5 > 10 µM | A549 > 10 µM | Malme-3M > 10 µM | UACC-62 > 10 µM | SF-268 > 10 µM | SR > 10 µM | SF-295 > 10 µM | SK-MEL-5 > 10 µM | OVCAR-8 > 10 µM | HOP-62 > 10 µM | U-251 > 10 µM | SN12C > 10 µM | EKVX > 10 µM

CCCCCCCCCCNC(=O)CCC(NC(=O)c1ccc(N(C)Cc2cnc3nc(N)nc(N)c3n2)cc1)C(=O)NCCCCCCCCCC (stereo not given)
inactive: IGROV-1 6.04 µM | RPMI-8226 10 µM | KM12 4.89 µM | NCI/ADR-RES > 90.6 µM | COLO 205 7.01 µM | LOX IMVI 2.36 µM | SW-620 3.13 µM | OVCAR-5 23.8 µM | A549 28.6 µM | Malme-3M 12.4 µM | UACC-62 18.9 µM | SF-268 9.62 µM | SR 2.94 µM | SF-295 43.7 µM | SK-MEL-5 3.9 µM | OVCAR-8 8.45 µM | HOP-62 31.8 µM | U-251 4.2 µM | SN12C 8.07 µM | EKVX 12.3 µM

O=C1c2[nH]c3ccc(Br)cc3c2CCN1Cc1ccc(Cl)cc1
inactive: IGROV-1 16.7 µM | RPMI-8226 > 10 µM | KM12 14.1 µM | NCI/ADR-RES 17.2 µM | COLO 205 17.7 µM | LOX IMVI 12.5 µM | SW-620 16.5 µM | OVCAR-5 12.5 µM | A549 12.7 µM | Malme-3M 15.3 µM | UACC-62 14.1 µM | SF-268 12.7 µM | SR 8.79 µM | SF-295 12.8 µM | SK-MEL-5 10.9 µM | OVCAR-8 18.7 µM | HOP-62 12.9 µM | U-251 12.5 µM | SN12C 19.3 µM | EKVX > 100 µM

CCOc1ccc(/N=N/S(=O)(=O)O)cc1
inactive: IGROV-1 > 100 µM | RPMI-8226 > 100 µM | KM12 > 100 µM | NCI/ADR-RES > 100 µM | COLO 205 > 100 µM | LOX IMVI > 100 µM | SW-620 > 100 µM | OVCAR-5 > 100 µM | A549 > 100 µM | Malme-3M > 100 µM | UACC-62 > 100 µM | SF-268 > 100 µM | SR > 100 µM | SF-295 > 100 µM | SK-MEL-5 > 100 µM | OVCAR-8 > 100 µM | HOP-62 > 100 µM | U-251 > 100 µM | SN12C > 100 µM | EKVX > 100 µM
